{
  "source": "patent US20110165649A1",
  "about": "“METHODS AND COMPOSITIONS TO IMPROVE THE HEALTH OF PLANTS, ANIMALS AND MICROBES BY MANIPULATING PROTEIN ENTRY INTO SYMBIONTS AND THEIR HOSTS” (priority 2010, published 2011)",
  "key": {"P. sojae hyphae": {"test_system": "P. sojae hyphae", "experiment": "Binding and entry of fluorescent lipid-binding fusion proteins, P. sojae hyphae, confocal microscopy", "format": "cell-based, Phytophthora sojae", "procedure": "A, Phosphatidylinositol-4-phosphate (PI-4-P) on the surface of P. sojae membranes mediates selective protein entry. Phosphatidylinositol-4-phosphate adaptor protein-1 (FAPP1)-mCherry, FAPP1-GFP, mCHerry alone or phosphatidylinositol-3-phosphate-binding PH-domain protein-1 (PEPP1)-GFP proteins (1 mg/ml) were incubated together with P. sojae hyphae for 12 hr, then washed extensively. Left panels show fluorescence image; right panels show the matching light micrograph.\nTo test for the presence of PI-3-P and PI-4-P on P. sojae hyphae, and the ability of those phosphoinositides to carry binding proteins into the hyphae, the pleckstrin-homology (PH) domains of the human proteins phosphatidylinositol-3-phosphate-binding PH-domain protein-1 (PEPP1) and phosphatidylinositol-4-phosphate adaptor protein-1 (FAPP1), respectively, were utilized (Dowler et al., 2000). […] To create biosensors capable of detecting PI-3P and PI-4-P in vivo, the PH domain of PEPP1 was fused to green fluorescent protein (GFP) and the PH domain of FAPP1 was fused to the modified red fluorescent protein, mCherry. (Sequences of the nucleic acids used for the production of these proteins, and the amino acid sequences corresponding to the same, are presented in FIGS. 6 A and B ([…]) and FIGS. 7 A and B (GST-FAPP1-mCherry. PEPP1-GFP and FAPP1-mCherry proteins (1 mg/ml in 25 mM 2-(N-morpholino)ethanesulfonic acid (MES) pH 5.8) were incubated with P. sojae hyphae for 6 hr at 25° C. then washed for 30 min with 25 mM MES pH 5.8, before being photographed using a Zeiss LSM510 laser scanning confocal microscope with an argon laser excitation wavelength of 488 nm for GFP or with a HeNe laser at a wavelength of 543 nm for mCherry."}, "[1]": {"test_system": "Human lung adenocarcinoma cells A549", "experiment": "Binding and entry of fluorescent lipid-binding fusion proteins, human lung cells", "format": "cell-based", "conditions": "1 mg/ml in DPBS", "procedure": "C, Detection of PI-3-P but not PI-4-P on the surface of human lung cells PEPP1-mCherry or FAPP1-mCherry proteins [1 mg/ml in Dulbecco's Phosphate Buffer Saline (Ca^+2/Mg^+2 free) (DPBS; Gibco)] were incubated with Human lung adenocarcinoma cells A549 (ATCC CCL-185) for 8 hr at 4° C. or 37° C. then washed twice briefly with DPBS, before being photographed. Left panels show fluorescence image; right panels show the matching light micrograph. […] FIGS. 1B and C were adapted from FIGS. 3 and 5 respectively from Kale et al 2010. External lipid PI-3-P mediates entry of eukaryotic pathogen effectors into plant and animal host cells. Cell 142:284-295."}, "[2]": {"test_system": "soybean root suspension culture cells / soybean root tips", "experiment": "Binding and entry of fluorescent lipid-binding fusion proteins, soybean root cells", "format": "cell-based", "conditions": "1 mg/ml in 25 mM MES pH 5.8, 4° C., suspension culture cells 6 hr or root tips 12 hr", "procedure": "B, Detection of PI-3-P but not PI-4-P on the surface of soybean cells. PEPP1-GFP or FAPP1-GFP proteins (1 mg/ml in 25 mM MES pH 5.8) were incubated with soybean root suspension culture cells for 6 hr or with soybean root tips for 12 hr at 4° C. then washed for 2 hr with 25 mM MES pH 5.8, then plasmolyzed with 0.8M Mannitol (suspension culture cells) or 4M NaCl (roots) for 30 minutes, before being photographed. Left panels show fluorescence image; right panels show the matching light micrograph. Plasma membranes are indicated by the white arrow heads."}, "[3]": {"conditions": "1 mg/ml in 25 mM MES pH 5.8, 6 hr at 25° C., confocal microscopy"}, "[4]": {"conditions": "hyphae stained simultaneously with PEPP1-GFP and FAPP1-mCherry"}},
  "note": "“Also recorded” adds a separate entry of the source.",
  "data": [
    {"substance": "FAPP1-mCherry: PH domain of human FAPP1 (PI-4-P-binding) fused to the modified red fluorescent protein mCherry; SEQ ID NO: 8", "values": [
      {"measurement": "binding to the membrane of P. sojae hyphae", "setting": "P. sojae hyphae; [3]", "value": "bound to the membrane of P. sojae hyphae"},
      {"measurement": "entry into P. sojae hyphae", "setting": "P. sojae hyphae; [3]", "value": "entered into the cells in abundance; also recorded: entered P. sojae hyphae"},
      {"measurement": "cellular entry, P. sojae hyphae", "setting": "P. sojae hyphae; [4]", "value": "cellular entry"},
      {"measurement": "membrane binding, P. sojae hyphae", "setting": "P. sojae hyphae; [4]", "value": "strong membrane binding"},
      {"measurement": "binding to the surface of human A549 cells", "setting": "[1]; 8 hr at 4° C. (endocytosis inhibited)", "value": "not and neither binds to the surface of the cells and does neither"},
      {"measurement": "entry into human A549 cells", "setting": "[1]; 8 hr at 37° C. (endocytosis active)", "value": "not and nor enters the cells and does neither"},
      {"measurement": "entry into soybean cells", "setting": "[2]", "value": "not"},
      {"measurement": "binding to the surface of soybean cells", "setting": "[2]; plasmolyzed", "value": "not"}
    ]}
  ]
}
